In PubChem BioAssay (NCI) one finds TGI and GI50 data, which are given here for 8 compounds.

“And” between values parts separate entries of the source, which are not always exact repeats. Equal values may be shown once.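 Cells were grown in 96-well plates and exposed to each compound for 48 hours at five concentrations; endpoints were interpolated linearly between bracketing concentrations, or set to the highest concentration if not reached. The concentration for 50% growth inhibition is given as GI50. TGI: concentration producing complete growth inhibition.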

Test systems include SF-539 CNS; PC-3 prostate; CCRF-CEM leukemia; SK-MEL-28 melanoma; MALME-3M melanoma; RXF 393 renal; U251 CNS; A498 renal; HCT-15 colon; HCT-116 colon.
Assay in all cases: NCI tumour cell line growth inhibition, 48 h

Consider `O=[N+]([O-])c1ccc(S(=O)(=O)Cc2ccccc2)c2nonc12`, for which the TGI in the test on SF-539 CNS came to 35.5 µM; in the test on PC-3 prostate it was 34.6 µM; in the test on CCRF-CEM leukemia it was 67.8 µM; with SK-MEL-28 melanoma, 38.5 µM; in the test on MALME-3M melanoma, 33.4 µM; with RXF 393 renal, 33.5 µM. In addition, the TGI in the test with U251 CNS is 36.1 µM; in the test with A498 renal, over 100 µM; in the test with HCT-15 colon, 51.7 µM; in the test on HCT-116 colon, 31.8 µM.

For `CCCNc1nc2ccccc2c2c1S(=O)(=O)c1ccc(Cl)cc1C2=O`, the GI50 was 1.26 µM with SF-539 CNS; 0.225 µM in the test with PC-3 prostate; 0.4 µM with CCRF-CEM leukemia; 1.61 µM in the test with SK-MEL-28 melanoma; 1.46 µM in the test on MALME-3M melanoma; 0.263 µM in the test with RXF 393 renal. Moreover, the GI50 in the test on U251 CNS was 1.6 µM; with A498 renal, 1.51 µM; in the test with HCT-15 colon, 0.728 µM; with HCT-116 colon, 0.425 µM. In addition, the TGI with SF-539 CNS is 3.63 µM; with PC-3 prostate, over 50 µM; in the test with CCRF-CEM leukemia, 3.98 µM; in the test with SK-MEL-28 melanoma, over 50 µM; in the test on MALME-3M melanoma, over 50 µM; with RXF 393 renal it was 1.57 µM. The TGI in the test on U251 CNS is over 50 µM; with A498 renal, 16.8 µM; with HCT-15 colon, over 50 µM; in the test with HCT-116 colon, over 50 µM.

On to `COc1ccc(OC)c(Nc2nc(-c3c(C)nc4sccn34)cs2)c1`, for which the GI50 in the test with SF-539 CNS is 48.8 µM; in the test on PC-3 prostate, 18.1 µM; in the test with CCRF-CEM leukemia, over 100 µM; in the test on SK-MEL-28 melanoma it was 58.9 µM; with MALME-3M melanoma it was over 100 µM; in the test with RXF 393 renal it was 36.3 µM. The GI50 was over 100 µM in the test on U251 CNS, 1.63 µM in the test on A498 renal, over 100 µM with HCT-15 colon and over 100 µM in the test on HCT-116 colon. Besides, the TGI in the test on SF-539 CNS, in the test on PC-3 prostate, with CCRF-CEM leukemia, in the test with SK-MEL-28 melanoma, with MALME-3M melanoma and in the test with RXF 393 renal was over 100 µM throughout. The TGI in the test on U251 CNS, in the test with A498 renal, with HCT-15 colon and with HCT-116 colon was over 100 µM throughout.

In the case of `OCCN1CCN(CC/C=C2\c3ccccc3Sc3ccc(Cl)cc32)CC1`, the GI50 is 1.61 µM and 2.05 µM in the test with SF-539 CNS; 2.75 µM and 2.96 µM in the test with PC-3 prostate; 1.61 µM and 3.29 µM in the test on CCRF-CEM leukemia; 1.66 µM with SK-MEL-28 melanoma; 1.94 µM with MALME-3M melanoma; 4.16 µM with RXF 393 renal. The GI50 in the test with U251 CNS was 2.34 µM and 2.46 µM; with A498 renal it was 2.14 µM and 1.84 µM; in the test with HCT-15 colon, 1.84 µM and 2 µM; with HCT-116 colon, 2.39 µM and 1.98 µM. The TGI in the test on SF-539 CNS is 3.37 µM and 4.37 µM; in the test on PC-3 prostate it was 11.8 µM and 13.4 µM; in the test on CCRF-CEM leukemia, 4.58 µM and 11.9 µM; with SK-MEL-28 melanoma, 3.91 µM and 3.03 µM; in the test with MALME-3M melanoma it was 3.8 µM; with RXF 393 renal it was 11.4 µM. The TGI in the test on U251 CNS is 5.96 µM and 6.4 µM; with A498 renal, 4.29 µM and 7.94 µM; in the test on HCT-15 colon, 3.64 µM and 4.29 µM; in the test with HCT-116 colon, 4.85 µM and 4.18 µM.

Take `COC1=C2CC(C)CC(OC)C(O)C(C)/C=C(\C)C(OC(N)=O)C(OC)/C=C\C=C(/C)C(=O)NC(=C(/C=N/N3CCCCC3)C1=O)C2=O` (stereo not given): the TGI in the test on SF-539 CNS is 20.8 µM; in the test on PC-3 prostate it was over 100 µM; in the test on CCRF-CEM leukemia, 7.85 µM; in the test with SK-MEL-28 melanoma, 37 µM; in the test on MALME-3M melanoma it was 28.7 µM; in the test on RXF 393 renal, 14.3 µM. The TGI in the test on U251 CNS amounted to 20.8 µM; in the test with A498 renal it was 63.8 µM; with HCT-15 colon, 28.6 µM; with HCT-116 colon, 9.48 µM.

In the case of `COc1cc(Cl)cc(-c2nn(-c3cccc(NC(=O)Nc4ccc(Cl)c(C(F)(F)F)c4)c3)cc2-c2ccncc2)c1`, the GI50 is 1.5 µM in the test on SF-539 CNS; 0.342 µM in the test with PC-3 prostate; 0.613 µM in the test on CCRF-CEM leukemia; 2.41 µM with SK-MEL-28 melanoma; 1.71 µM with MALME-3M melanoma; 1.71 µM in the test on RXF 393 renal. Also, the GI50 in the test with U251 CNS was 0.729 µM; with A498 renal, 2.68 µM; in the test with HCT-15 colon, 0.493 µM; in the test with HCT-116 colon, 0.631 µM. For the same compound, the TGI in the test on SF-539 CNS came out at 3.35 µM; in the test on PC-3 prostate, 2.12 µM; with CCRF-CEM leukemia, 3.65 µM; in the test on SK-MEL-28 melanoma, 8.41 µM; in the test with MALME-3M melanoma it was 8.59 µM; in the test on RXF 393 renal, 4.42 µM. Also, the TGI with U251 CNS was 2.11 µM; in the test with A498 renal, 14.4 µM; in the test on HCT-15 colon, 2.4 µM; in the test with HCT-116 colon it was 2.36 µM.

For `Cn1cnc([N+](=O)[O-])c1Sc1ncn[nH]1`, the GI50 is over 100 µM with SF-539 CNS; over 100 µM in the test with PC-3 prostate; 28.6 µM in the test with CCRF-CEM leukemia; over 100 µM in the test on SK-MEL-28 melanoma; 23.9 µM in the test with MALME-3M melanoma; 29 µM in the test on RXF 393 renal. Besides, the GI50 in the test on U251 CNS was over 100 µM; in the test on A498 renal it was over 100 µM; with HCT-15 colon it was 70.1 µM; in the test with HCT-116 colon, over 100 µM. Besides, the TGI in the test with SF-539 CNS, with PC-3 prostate, in the test on CCRF-CEM leukemia, in the test on SK-MEL-28 melanoma, with MALME-3M melanoma and in the test on RXF 393 renal was over 100 µM each time. In addition, the TGI with U251 CNS, in the test with A498 renal, in the test with HCT-15 colon and with HCT-116 colon was over 100 µM throughout.

Turning to `C/C=C(\C)C(=O)N[C@H]1C(O)C[C@]2(C)C3CC[C@@]4(C)C(CC[C@@H]4C(C)N(C)C)C3CCC2C1O` (stereo not given in full), the GI50 was 1.61 µM in the test with SF-539 CNS; 8.72 µM in the test on PC-3 prostate; 7.76 µM in the test with CCRF-CEM leukemia; 2.04 µM in the test with SK-MEL-28 melanoma; 2.6 µM in the test with MALME-3M melanoma; 7.53 µM with RXF 393 renal. The GI50 with U251 CNS was 4.35 µM; with A498 renal, 10.4 µM; in the test on HCT-15 colon, 1.71 µM; with HCT-116 colon, 2.28 µM. Also, the TGI in the test on SF-539 CNS was 3.46 µM; with PC-3 prostate, over 52.6 µM; in the test on CCRF-CEM leukemia, 75.8 µM; in the test on SK-MEL-28 melanoma it was 3.83 µM; with MALME-3M melanoma it was 7.47 µM; with RXF 393 renal it was 23.2 µM. Further, the TGI with U251 CNS came to 27.6 µM; in the test with A498 renal it was 30.1 µM; in the test with HCT-15 colon, 5.01 µM; in the test on HCT-116 colon it was 6.39 µM.
